Laboratory results reported in patent US20040142821A1, “Pesticide composition comprising malononitrile compounds” (priority 2001, published 2004).

What was measured:
Musca domestics = experiment: Pesticidal test against Musca domestics, treated filter paper with sucrose bait (Test Example 5); format: in vivo; conditions: 500 ppm test liquid (Formulation Example 5), 0.7 ml on filter paper, ten female adults, after 24 hours
Procedure: Ten female adults of Musca domestics (house fly) were set free in the polyethylene cup, which was then kept covered. After 24 hours, their survival was examined to determine the mortality.

Cullex pipiens pallens = experiment: whole plant or invertebrate; conditions: 24 h
Procedure: In 100 ml of ion-exchanged water, the test liquid had been prepared as described above, was added dropwise in an amount of 0.7 ml (the concentration of active ingredient was 3.5 ppm). Twenty final-instar larvae of Cullex pipiens pallens (common mosquito) were set free in the solution. After 1 days, their survival was examined to determine the mortality.

German cockroach = experiment: Pesticidal test against German cockroach, treated filter paper with sucrose bait (Test Example 6); format: in vivo; conditions: Blattella germanica, 144 h; 500 ppm test liquid (Formulation Example 5), 0.7 ml on filter paper; two male adults; after 6 days
Source text: Two male adults of German cockroach (Blattalla germanica) were set free in the polyethylene cup, which was then kept covered. After 6 days, their survival was examined to determine the mortality.

Row | SMILES | mortality at 500 ppm (Musca domestics) | mortality at 3.5 µg/mL (Cullex pipiens pallens) | mortality at 500 ppm (German cockroach)
1 | C=CCCC(C#N)(C#N)Cc1ccc(C(F)(F)F)cc1[N+](=O)[O-] [Compound 67, 2-(3-butenyl)-2-(2-nitro-4-(trifluoromethyl)benzyl)malononitrile] | 100% | 100% | –
2 | C=C(C)CC(C#N)(C#N)Cc1ccc(C(F)(F)F)cc1 [Compound 108, 2-(2-methyl-2-propenyl)-2-(4-(trifluoromethyl)benzyl)malononitrile] | 100% | 100% | –
3 | C=CCC(C#N)(C#N)Cc1cccc(Oc2ccccc2)c1 [Compound 118, 2-allyl-2-(3-phenoxybenzyl)malononitrile] | – | 100% | –
4 | C=CCC(C#N)(C#N)Cc1ccc(S(C)(=O)=O)cc1 [Compound 61, 2-allyl-2-(4-(methylsulfonyl)benzyl)malononitrile] | – | 100% | –
5 | C=CCCC(C#N)(C#N)Cc1ccc(OC(C)=O)cc1 [Compound 78, 2-(3-butenyl)-2-(4-(acetyloxy)benzyl)malononitrile] | – | 100% | –
6 | C=CCC(C#N)(C#N)Cc1ccc(Oc2cccc(C)c2)cc1 [Compound 119, 2-allyl-2-(4-(m-tolyloxy)benzyl)malononitrile] | – | – | 100%
7 | CCC(C#N)(C#N)Cc1ccc(C(F)(F)F)cc1 [Compound 75, 2-ethyl-2-(4-(trifluoromethyl)benzyl)malononitrile] | 100% | 100% | –
8 | CCCCC(C)C(C#N)(C#N)Cc1ccc(C(F)(F)F)cc1 (stereo not drawn) [Compound 113, 2-(1-methylpentyl)-2-(4-(trifluoromethyl)benzyl)malononitrile] | – | 100% | –
9 | CC(C)=CCC(C#N)(C#N)Cc1ccc(C(F)(F)F)cc1 [Compound 106, 2-(3-methyl-2-butenyl)-2-(4-(trifluoromethyl)benzyl)malononitrile] | – | 100% | –
10 | CCCC(C#N)(C#N)Cc1ccc(C(F)(F)F)cc1 [Compound 71, 2-propyl-2-(4-(trifluoromethyl)benzyl)malononitrile] | 100% | 100% | –
11 | C=CCCC(C#N)(C#N)Cc1ccc(OC(F)(F)Br)cc1 [Compound 35, 2-(3-butenyl)-2-(4-(bromodifluoromethoxy)benzyl)malononitrile] | 100% | 100% | –
12 | C=CCCC(C#N)(C#N)Cc1ccc(OC(F)(F)C(F)F)cc1 [Compound 80, 2-(3-butenyl)-2-(4-(1,1,2,2-tetrafluoroethoxy)benzyl)malononitrile] | – | 100% | –
13 | CCC(C)C(C#N)(C#N)Cc1ccc(C(F)(F)F)cc1 (stereo not drawn) [Compound 111, 2-(1-methylpropyl)-2-(4-(trifluoromethyl)benzyl)malononitrile] | 100% | 100% | –
14 | C=CCC(C#N)(C#N)Cc1ccc(SC)cc1 [Compound 70, 2-allyl-2-(4-(methylthio)benzyl)malononitrile] | – | 100% | –
15 | C=CCC(C#N)(C#N)Cc1cccc(F)c1F [Compound 114, 2-allyl-2-(2,3-difluorobenzyl)malononitrile] | 100% | – | 100%
16 | C=CCC(C#N)(C#N)Cc1ccc(F)c(Oc2ccccc2)c1 [Compound 116, 2-allyl-2-(4-fluoro-3-phenoxybenzyl)malononitrile] | – | 100% | –
17 | C=CCC(C#N)(C#N)Cc1c(Cl)cccc1Cl [Compound 54, 2-allyl-2-(2,6-dichlorobenzyl)malononitrile] | – | 100% | –
18 | C=CCCC(C#N)(C#N)Cc1ccc(OCCC)cc1 [Compound 99, 2-(3-butenyl)-2-(4-propoxybenzyl)malononitrile] | – | 100% | –
19 | C=CCC(C#N)(C#N)C(C#N)c1ccc(C)cc1 (stereo not drawn) [Compound 92, 2-allyl-2-(4-methyl-α-cyanobenzyl)malononitrile] | 100% | 100% | –
20 | C=CCCC(C#N)(C#N)Cc1cccc(OC(F)(F)F)c1 [Compound 90, 2-(3-butenyl)-2-(3-(trifluoromethoxy)benzyl)malononitrile] | 100% | – | –
21 | CC(C)=CCC(C#N)(C#N)Cc1ccc(OC(F)(F)F)cc1 [Compound 27, 2-(3-methyl-2-butenyl)-2-(4-(trifluoromethoxy)benzyl)malononitrile] | – | 100% | –
22 | C=CCCC(C#N)(C#N)Cc1ccc(OCC(F)(F)F)cc1 [Compound 81, 2-(3-butenyl)-2-(4-(2,2,2-trifluoroethoxy)benzyl)malononitrile] | – | 100% | –
23 | C=CCCC(C#N)(C#N)Cc1ccc(OCC=C)cc1 [Compound 38, 2-(3-butenyl)-2-(4-(2-propenyloxy)benzyl)malononitrile] | – | 100% | –
24 | C=CCCC(C#N)(C#N)Cc1ccc(OCC)cc1 [Compound 98, 2-(3-butenyl)-2-(4-ethoxybenzyl)malononitrile] | – | 100% | –
25 | C#CCC(C#N)(C#N)C(C=C)c1ccc(OC(F)(F)F)cc1 (stereo not drawn) [Compound 34, 2-(2-propynyl)-2-(1-(4-(trifluoromethoxy)phenyl)-2-propenyl)malononitrile] | 100% | 100% | –

Row | SMILES | mortality at 500 ppm (Musca domestics) | mortality at 3.5 µg/mL (Cullex pipiens pallens) | mortality at 500 ppm (German cockroach)
26 | C=CCCCC(C#N)(C#N)Cc1ccc(C#N)cc1 [Compound 7, 2-(4-cyanobenzyl)-2-(4-pentenyl)malononitrile] | – | 100% | –
27 | CCCC(C)C(C#N)(C#N)Cc1ccc(C(F)(F)F)cc1 (stereo not drawn) [Compound 112, 2-(1-methylbutyl)-2-(4-(trifluoromethyl)benzyl)malononitrile] | – | 100% | –
28 | C=CCC(C#N)(C#N)Cc1ccc(OCC)cc1 [Compound 44, 2-allyl-2-(4-ethoxybenzyl)malononitrile] | – | 100% | –
29 | C=CCCC(C#N)(C#N)Cc1ccc(C#N)cc1 [Compound 6, 2-(3-butenyl)-2-(4-cyanobenzyl)malononitrile] | – | 100% | –
30 | C=CCC(C#N)(C#N)C(c1ccc(OC(F)(F)F)cc1)C(C)(C)C (stereo not drawn) [Compound 103, 2-allyl-2-(1-(4-(trifluoromethoxy)phenyl)-2,2-dimethylpropyl)malononitrile] | – | 100% | –
31 | CCCCCC(C#N)(C#N)Cc1ccc(C(F)(F)F)cc1 [Compound 104, 2-pentyl-2-(4-(trifluoromethyl)benzyl)malononitrile] | – | 100% | –
32 | C=CCC(C#N)(C#N)Cc1ccc(CC)cc1 [Compound 101, 2-allyl-2-(4-ethylbenzyl)malononitrile] | 100% | 100% | –
33 | C=CCC(C#N)(C#N)Cc1ccc(OC(C)CC)cc1 (stereo not drawn) [Compound 115, 2-allyl-2-(4-(2-butyloxy)benzyl)malononitrile] | 100% | 100% | –
34 | C=CCC(C#N)(C#N)Cc1ccc(OC)cc1 [Compound 29, 2-allyl-2-(4-methoxybenzyl)malononitrile] | – | 100% | –
35 | C=CCC(C#N)(C#N)Cc1cccc(OC)c1 [Compound 28, 2-allyl-2-(3-methoxybenzyl)malononitrile] | – | 100% | –
36 | C=CCC(C#N)(C#N)C(OCC)c1ccc(OC(F)(F)F)cc1 (stereo not drawn) [Compound 82, 2-allyl-2-(4-(trifluoromethoxy)-α-ethoxybenzyl)malononitrile] | 100% | 100% | –
37 | C=CCC(C#N)(C#N)Cc1ccc(Oc2ccc(Cl)cc2)cc1 [Compound 121, 2-allyl-2-(4-(p-chlorophenoxy)benzyl)malononitrile] | – | 100% | 100%
38 | CC=CCC(C#N)(C#N)Cc1ccc(C(F)(F)F)cc1 [Compound 107, 2-(2-butenyl)-2-(4-(trifluoromethyl)benzyl)malononitrile] | 100% | 100% | –
39 | C=CCC(C#N)(C#N)C(C#N)c1ccc(OC)cc1 (stereo not drawn) [Compound 91, 2-allyl-2-(4-methoxy-α-cyanobenzyl)malononitrile] | – | 100% | –
40 | C=CCC(C#N)(C#N)Cc1ccc(Br)cc1 [Compound 13, 2-allyl-2-(4-bromobenzyl)malononitrile] | – | 100% | –
41 | C=CCC(C#N)(C#N)Cc1ccc(C(F)(F)F)cc1[N+](=O)[O-] [Compound 63, 2-allyl-2-(2-nitro-4-(trifluoromethyl)benzyl)malononitrile] | – | 100% | –
42 | C=CCCC(C#N)(C#N)Cc1c(Cl)cc(C(F)(F)F)cc1Cl [Compound 65, 2-(3-butenyl)-2-(2,6-dichloro-4-(trifluoromethyl)benzyl)malononitrile] | 100% | 100% | –
43 | CC(C)CCC(C#N)(C#N)Cc1ccc(C(F)(F)F)cc1 [Compound 105, 2-(3-methylbutyl)-2-(4-(trifluoromethyl)benzyl)malononitrile] | 100% | 100% | –
44 | C=CCC(C#N)(C#N)C(OC)c1ccc(C#N)cc1 (stereo not drawn) [Compound 83, 2-allyl-2-(4-cyano-α-methoxybenzyl)malononitrile] | – | 100% | –
45 | CC(C)CCC(C#N)(C#N)Cc1ccc(OC(F)(F)F)cc1 [Compound 45, 2-(3-methylbutyl)-2-(4-(trifluoromethoxy)benzyl)malononitrile] | 100% | 100% | –
46 | C=CCC(C#N)(C#N)Cc1ccc(C(C)=O)cc1 [Compound 97, 2-(4-acetylbenzyl)-2-allylmalononitrile] | – | 100% | –
47 | C=CCC(C#N)(C#N)C(C)(C)c1cccc(Cl)c1 [Compound 48, 2-allyl-2-(1-(3-chlorophenyl)-1-methylethyl)malononitrile] | – | 100% | –
48 | CC(C)=CCC(C#N)(C#N)Cc1ccc(Cl)cc1 [Compound 25, 2-(4-chlorobenzyl)-2-(3-methyl-2-butenyl)malononitrile] | – | 100% | –
49 | C=CCCC(C#N)(C#N)Cc1ccc(OC(C)C)cc1 [Compound 100, 2-(3-butenyl)-2-(4-isopropoxybenzyl)malononitrile] | – | 100% | –
